Experiments:
[1] = Cmax in Wistar rat at 1 mg/kg, iv after 0.083 to 144 hrs by LC-MS/MS analysis; type: ADME, organism-based; set-up: dose 1 mg/kg, route intravenous; details: in vivo
[2] = Tmax in Wistar rat at 1 mg/kg, iv after 0.083 to 144 hrs by LC-MS/MS analysis; type: ADME, organism-based; details: in vivo
[3] = Tmax in BALB/c mouse at 1 mg/kg, iv after 0.083 to 144 hrs by LC-MS/MS analysis; type: ADME, organism-based; details: in vivo
[4] = Half life in BALB/c mouse at 1 mg/kg, iv after 0.083 to 144 hrs by LC-MS/MS analysis; type: ADME, organism-based; details: in vivo
[5] = Half life in BALB/c mouse at 10 mg/kg, po after 0.25 to 144 hrs by LC-MS/MS analysis; type: ADME, organism-based; details: in vivo
[6] = Volume of distribution at steady state in Wistar rat at 1 mg/kg, iv after 0.083 to 144 hrs by LC-MS/MS analysis; type: ADME, organism-based; details: in vivo, read-out: Vdss
[7] = Drug concentration in Wistar rat brain at 10 mg/kg, po after 1 hr by LC-MS/MS analysis; type: ADME, organism-based; details: read-out: Drug uptake
[8] = Drug concentration in Wistar rat brain at 10 mg/kg, po after 24 hrs by LC-MS/MS analysis; type: ADME, organism-based; details: read-out: Drug uptake
[9] = Drug concentration in Wistar rat brain at 10 mg/kg, po after 48 hrs by LC-MS/MS analysis; type: ADME, organism-based; details: read-out: Drug uptake
[10] = AUCt in Wistar rat plasma at 10 mg/kg, po after 1 to 144 hrs by LC-MS/MS analysis; type: ADME, organism-based
[11] = Cmax in Wistar rat brain at 10 mg/kg, po after 1 to 144 hrs by LC-MS/MS analysis; type: ADME, organism-based; set-up: dose 10 mg/kg, route oral
[12] = target: T1, Cytochrome P450 2B6 (Homo sapiens, UniProt P20813); assay: Inhibition of CYP2B6 (unknown origin) up to 10 uM; type: ADME
T1 sequence (P20813 whole entry): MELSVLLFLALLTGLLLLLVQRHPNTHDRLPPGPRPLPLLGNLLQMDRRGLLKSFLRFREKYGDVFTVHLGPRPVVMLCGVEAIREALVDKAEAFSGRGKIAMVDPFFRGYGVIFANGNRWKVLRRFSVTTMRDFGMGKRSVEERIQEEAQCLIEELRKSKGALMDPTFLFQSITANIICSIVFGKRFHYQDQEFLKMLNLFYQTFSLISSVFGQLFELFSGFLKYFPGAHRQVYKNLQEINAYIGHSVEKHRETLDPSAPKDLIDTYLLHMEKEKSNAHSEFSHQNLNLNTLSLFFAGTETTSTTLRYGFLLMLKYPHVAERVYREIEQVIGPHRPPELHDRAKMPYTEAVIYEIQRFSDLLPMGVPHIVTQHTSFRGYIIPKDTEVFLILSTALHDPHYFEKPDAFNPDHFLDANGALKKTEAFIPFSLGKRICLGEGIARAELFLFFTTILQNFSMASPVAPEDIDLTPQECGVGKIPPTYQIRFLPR

[13] = target: Cytochrome P450 2C19 (Homo sapiens, UniProt P33261); assay: Inhibition of CYP2C19 (unknown origin) up to 10 uM; type: ADME
[14] = system: Rattus norvegicus; assay: Memory enhancement effect in time-delay induced Wistar rat model of amnesia assessed as exploration time for object2 in acquisition trial at 3 mg/kg, po administered as single dose and measured on day 8 by novel object recognition test (reference value: 16.33 sec); type: functional
[15] = system: Rattus norvegicus; assay: Memory enhancement effect in scopolamine-induced Wistar rat model of amnesia assessed as exploration time for object1 in acquisition trial at 0.15 mg/kg, po administered as single dose and measured on day 8 by novel object recognition test (reference value: 16.11 sec); type: functional
[16] = system: Rattus norvegicus; assay: Memory enhancement effect in scopolamine-induced Wistar rat model of amnesia assessed as exploration time for familiar object in retention trial at 0.5 mg/kg, po administered as single dose and measured on day 9 by novel object recognition test (reference value: 8.59 sec); type: functional
[17] = system: Rattus norvegicus; assay: Memory enhancement effect in time-delay induced Wistar rat model of amnesia assessed as exploration time for object1 at 3 mg/kg, po administered as single dose after acquisition trial by novel object recognition test (reference value: 19.09 sec); type: functional
[18] = system: Rattus norvegicus; assay: Memory enhancement effect in time-delay induced Wistar rat model of amnesia assessed as exploration time for object2 at 3 mg/kg, po administered as single dose after acquisition trial by novel object recognition test (reference value: 21.07 sec); type: functional
[19] = system: Rattus norvegicus; assay: Memory enhancement effect in time-delay induced Wistar rat model of amnesia assessed as increase in novel object discrimination at 1 mg/kg, po administered as single dose after acquisition trial by novel object recognition test (reference value: 0.08); type: functional
[20] = system: Rattus norvegicus; assay: Memory enhancement effect in time-delay induced Wistar rat model of amnesia assessed as exploration time for object2 in acquisition trial at 0.05 mg/kg, po for 7 days and measured on day 8 by novel object recognition test (reference value: 11.76 sec); type: functional
[21] = system: Rattus norvegicus; assay: Memory enhancement effect in time-delay induced Wistar rat model of amnesia assessed as exploration time for familiar object in retention trial at 0.05 mg/kg, po for 7 days and measured on day 8 by novel object recognition test (reference value: 10.20 sec); type: functional
[22] = system: Rattus norvegicus; assay: Memory enhancement effect in time-delay induced Wistar rat model of amnesia assessed as exploration time for familiar object in retention trial at 0.15 mg/kg, po for 7 days and measured on day 8 by novel object recognition test (reference value: 10.20 sec); type: functional
[23] = system: Rattus norvegicus; assay: Memory enhancement effect in time-delay induced Wistar rat model of amnesia assessed as exploration time for object1 in acquisition trial at 0.5 mg/kg, po for 7 days and measured on day 8 by novel object recognition test (reference value: 13.73 sec); type: functional
[24] = system: Rattus norvegicus; assay: Memory enhancement effect in scopolamine-induced Wistar rat model of amnesia assessed as exploration time for object2 in acquisition trial at 0.15 mg/kg, po for 7 days and measured on day 8 by novel object recognition test (reference value: 15.63 sec); type: functional
[25] = system: Rattus norvegicus; assay: Memory enhancement effect in scopolamine-induced Wistar rat model of amnesia assessed as exploration time for novel object in retention trial at 0.15 mg/kg, po for 7 days and measured on day 8 by novel object recognition test (reference value: 12.09 sec); type: functional
[26] = system: Rattus norvegicus; assay: Memory enhancement effect in scopolamine-induced Wistar rat model of amnesia assessed as exploration time for object2 in acquisition trial at 0.50 mg/kg, po for 7 days and measured on day 8 by novel object recognition test (reference value: 15.63 sec); type: functional
[27] = system: Rattus norvegicus; assay: Memory enhancement effect in scopolamine-induced Wistar rat model of amnesia assessed as exploration time for novel object in retention trial at 0.5 mg/kg, po for 7 days and measured on day 8 by novel object recognition test (reference value: 12.09 sec); type: functional
[28] = Drug level in Sprague-Dawley rat plasma at 0.5 mg/kg, po for 7 days; type: ADME, organism-based
[29] = system: Rattus norvegicus; assay: Improvement in social recognition scopolamine-induced Sprague-Dawley rat model of amnesia assessed as increase in reduction in social investigation time at 0.15 mg/kg, po for 7 days measured after 24 hrs (Rvb =6.59%); type: functional; set-up: scale not given: the % may be the effect or the level left
[30] = Cmax in human at 7.5 to 100 mg after 1 to 2.5 hrs; type: ADME; details: in vivo

Chain of Cytochrome P450 2C19 (P33261 whole entry): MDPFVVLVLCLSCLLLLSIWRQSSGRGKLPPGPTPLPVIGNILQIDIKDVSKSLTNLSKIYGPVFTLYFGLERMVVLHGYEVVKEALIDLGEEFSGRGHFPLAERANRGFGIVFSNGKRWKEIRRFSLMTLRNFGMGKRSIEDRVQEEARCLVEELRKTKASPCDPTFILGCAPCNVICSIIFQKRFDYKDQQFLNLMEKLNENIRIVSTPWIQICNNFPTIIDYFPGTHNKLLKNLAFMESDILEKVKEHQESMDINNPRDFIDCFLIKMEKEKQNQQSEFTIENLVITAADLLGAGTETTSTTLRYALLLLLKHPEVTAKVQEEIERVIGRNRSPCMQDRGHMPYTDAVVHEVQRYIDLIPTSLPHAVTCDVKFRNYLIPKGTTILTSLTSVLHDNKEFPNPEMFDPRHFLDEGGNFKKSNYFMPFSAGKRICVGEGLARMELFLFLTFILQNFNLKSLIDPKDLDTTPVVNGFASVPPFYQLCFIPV

Question: With `CCC(=O)c1sc(-c2ccc(Cl)cc2)c(C)c1-c1ccc(S(N)(=O)=O)cc1` as the compound, how does the Cmax [1] read?
Answer: 1.1 µM

Question: And the Tmax [2]?
Answer: 4.8 min

Question: What about the Tmax [3] of the same compound?
Answer: 4.8 min

Question: And the half-life [4]?
Answer: 14 h

Question: What about the half-life [5] of the same compound?
Answer: 22 h

Question: What about the Vd [6] of the same compound?
Answer: 4.3 L/kg

Question: What about the concentration at 1 h [7] of the same compound?
Answer: 4.03 µM

Question: And the concentration at 24 h [8]?
Answer: 6.52 µM

Question: And the concentration at 48 h [9]?
Answer: 5.53 µM

Question: And the AUC(0-t) [10]?
Answer: 35 µM·h

Question: And the Cmax [11]?
Answer: 9.2 µM

Question: What about the “inhibition (INH)” value [12] of the same compound?
Answer: Not Active

Question: What about the “inhibition (INH)” value [13] of the same compound?
Answer: Not Active

Question: What about the Time [14] of the same compound?
Answer: 19.43 s

Question: And the Time [15]?
Answer: 14.08 s

Question: What about the Time [16] of the same compound?
Answer: 6.63 s

Question: What about the Time [17] of the same compound?
Answer: 17.81 s

Question: And the Time [18]?
Answer: 21.46 s

Question: And the Activity_index [19]?
Answer: 0.38

Question: What about the Time [20] of the same compound?
Answer: 15.41 s

Question: What about the Time [21] of the same compound?
Answer: 7.64 s

Question: And the Time [22]?
Answer: 3.79 s

Question: What about the Time [23] of the same compound?
Answer: 10.04 s

Question: And the Time [24]?
Answer: 13.41 s

Question: What about the Time [25] of the same compound?
Answer: 12.8 s

Question: And the Time [26]?
Answer: 16.55 s

Question: What about the Time [27] of the same compound?
Answer: 15.06 s

Question: What about the concentration at 168 h [28] of the same compound?
Answer: 1.12 µM

Question: What about the Activity [29] of the same compound?
Answer: 55.83%

Question: What about the Cmax [30] of the same compound?
Answer: 25.1 to 1620 ng/mL

From ChEMBL document CHEMBL4354827, “Discovery of Novel, Potent, Brain-Permeable, and Orally Efficacious Positive Allosteric Modulator of α7 Nicotinic Acetylcholine Receptor [4-(5-(4-Chlorophenyl)-4-methyl-2-propionylthiophen-3-yl)benzenesulfonamide]: Structure-Activity Relationship and Preclinical Characterization” (J Med Chem, 2020)
